# Experimental data reported in patent US20220183972A1, “NANOEMULSION HYDROPHOBIC […]” (VERTOSA INC., priority 2018, published 2022).
# Assay: not given
# Details: Span surfactants, Example 10; cited from earlier work
row,Molecule,HLB
1,Span 60,4.7
2,Span 120,4.7
3,Span 80,4.3
4,Span 40,6.7

# Same assay, conditions: Table 1; cited from earlier work
row,Molecule,HLB
1,Vitamin E TPGS 2000,16.5
2,Vitamin E TPGS 200,6.3
3,Vitamin E TPGS 4000,18.1
4,Polyglyceryl-6 Stearate,9
5,Vitamin E TPGS 300,8.2
6,Polyglyceryl-6 oleate,9
7,Tween 81,10

# Assay: not given
# Details: upon eating cannabis; cited from earlier work
row,Molecule,THC absorbed
1,"CCCCCc1cc(O)c2c(c1)OC(C)(C)[C@@H]1CCC(C)=C[C@@H]21 [THC, Tetrahydrocannabinol]",8-15%

# Same assay, conditions: upon smoking cannabis; cited from earlier work
row,Molecule,THC absorbed by lung
1,"CCCCCc1cc(O)c2c(c1)OC(C)(C)[C@@H]1CCC(C)=C[C@@H]21 [THC, Tetrahydrocannabinol]",2-45%

# Assay: Emulsion droplet size by DLS, Polyglyceryl-4 main surfactants
# Assay type: physicochemical
# Details: 1 g cannabinoid oil, 0.7 g olive oil, 2.5 g Polyglyceryl-4 surfactant, 1.5 g sunflower lecithin, 40 g water, 80% amplitude
row,Molecule,final emulsion droplet average size
1,Polyglyceryl-4 Isostearate,371 nm
2,Polyglyceryl-4 Oleate,506 nm
3,Polyglyceryl-4 Caprate,365 nm
